Results on 16 compounds are retold here after patent publication US9493411B2 (AbbVie Inc., priority 2013, dated 2016).

The first assay deals with T1, BRD4 (BDII_E352-M457) (Homo sapiens, UniProt O60885).
T1 construct: made in house
The assay is described as follows: TR-FRET bromodomain binding assay, BRD4 second bromodomain. As to conditions: His-tagged BD2, Alexa647-labeled probe 30 nM; Ki calculated from IC50. The procedure:
(§1) A time-resolved fluorescence resonance energy transfer (TR-FRET) assay was used to determine the affinities of compounds of the Examples listed in Table 1 for each bromodomain of BRD4. His-tagged first (BD1: amino acids K57-E168) and second (BD2: amino acids E352-E168) bromodomains of BRD4 were expressed and purified. An Alexa647-labeled BET-inhibitor was used as the fluorescent probe in the assay.
(§2) Compound dilution series were prepared in DMSO via a 3-fold serial dilution from 2.5 mM to 42 nM. Compounds were then diluted 6:100 in assay buffer (20 mM Sodium Phosphate, pH 6.0, 50 mM NaCl, 1 mM Ethylenediaminetetraacetic acid disodium salt dihydrate, 0.01% Triton X-100, 1 mM DL-Dithiothreitol) to yield 3× working solutions. Six microliters (μL) of the working solution was then transferred to white, low-volume assay plates (Costar #3673). A 1.5× assay mixture containing His-tagged bromodomain, Europium-conjugated anti-His antibody (Invitrogen PV5596) and the Alexa-647-conjugated probe molecule was also prepared. Twelve μL of this solution were added to the assay plate to reach a final volume of 18 μL. The final concentration of 1× assay buffer contains 2% DMSO, 50 μM-0.85 nM compound, 8 nM His-tagged bromodomain, 1 nM Europium-conjugated anti-His-tag antibody and 100 nM or 30 nM probe (for BDI or BDII, respectively). After a one-hour incubation at room temperature, TR-FRET ratios were determined using an Envision multilabel plate reader (Ex 340, Em […]).
(§3) TR-FRET data were normalized to the means of 24 no-compound controls (“high”) and 8 controls containing 1 μM un-labeled probe (“low”). Percent inhibition was plotted as a function of compound concentration and the data were fit with the 4 parameter logistic equation to obtain IC50s. Inhibition constants (Ki) were calculated from the IC50s, probe Kd and probe concentration. Typical Z′ values were between 0.65 and 0.75. The minimum significant ratio was determined to evaluate assay reproducibility (Eastwood et al., (2006) J Biomol Screen, 11: 253-261). The MSR was determined to be 2.03 for BDI and 1.93 for BDII, and a moving MSR (last six run MSR overtime) for both BDI and BDII was typically <3.
For the compound `Cc1[nH]c(-c2ccccc2NCc2c(F)cccc2F)cc1C(N)=O` [Example 22, 5-{2-[(2,6-difluorobenzyl)amino]phenyl}-2-methyl-1H-pyrrole-3-carboxamide], the Ki (commonly the dissociation constant of the complex between target and ligand, obtained from inhibition or displacement) was 3.66 µM.

With `Cc1[nH]c(-c2ccc(-c3cccc(C(=O)NCc4ccco4)c3)cc2)cc1C(N)=O` [Example 106, 5-{3′-[(furan-2-ylmethyl)carbamoyl]biphenyl-4-yl}-2-methyl-1H-pyrrole-3-carboxamide], the Ki is 4.87 µM.

The next assay addresses T2, BRD4 (BDI_K57-E168) (Homo sapiens, UniProt O60885).
T2 construct: BD1: amino acids K57-E168; made in house
The assay is described as follows: TR-FRET bromodomain binding assay, BRD4 first bromodomain. As to conditions: His-tagged BD1, Alexa647-labeled probe 100 nM; Ki calculated from IC50. On the procedure:
as §1, §2, §3
Take `Cc1[nH]c(-c2ccccc2NCc2c(F)cccc2F)cc1C(N)=O` [Example 22, 5-{2-[(2,6-difluorobenzyl)amino]phenyl}-2-methyl-1H-pyrrole-3-carboxamide]: the Ki is 2.98 µM. The same measure, in the same setting: with `Cc1[nH]c(-c2ccc(-c3cccc(C(=O)NCc4ccco4)c3)cc2)cc1C(N)=O` [Example 106, 5-{3′-[(furan-2-ylmethyl)carbamoyl]biphenyl-4-yl}-2-methyl-1H-pyrrole-3-carboxamide] the figure was 6.01 µM.

On to `Cc1[nH]c(-c2ccccc2NC2CN3CCC2CC3)cc1C(N)=O` (stereo not drawn) [Example 71, 5-[2-(1-azabicyclo[2.2.2]oct-3-ylamino)phenyl]-2-methyl-1H-pyrrole-3-carboxamide], for which the inhibitory constant (Ki) is 0.628 µM. On to `Cc1[nH]c(-c2ccccc2Oc2ccc(S(C)(=O)=O)cc2)cc1C(N)=O` [Example 132, 2-methyl-5-{2-[4-(methylsulfonyl)phenoxy]phenyl}-1H-pyrrole-3-carboxamide], for which the Ki was 10.9 µM. On the same count and under the same terms, then `Cc1[nH]c(-c2ccccc2NS(=O)(=O)c2ccc(F)cc2F)cc1C(N)=O` [Example 84, 5-(2-{[(2,4-difluorophenyl)sulfonyl]amino}-phenyl)-2-methyl-1H-pyrrole-3-carboxamide], with 10.6 µM. Still for that read-out and setting: with `Cc1[nH]c(-c2cccc(/C=C/c3ccccc3)c2)cc1C(N)=O` [Example 157, 2-methyl-5-{3-[(E)-2-phenylethenyl]phenyl}-1H-pyrrole-3-carboxamide] the figure was 7.41 µM. Consider `Cc1[nH]c(-c2ccccc2NS(=O)(=O)c2ccc(O)cc2)cc1C(N)=O` [Example 88, 5-(2-{[(4-hydroxyphenyl)sulfonyl]amino}phenyl)-2-methyl-1H-pyrrole-3-carboxamide], for which the Ki was 8.48 µM.

For the compound `Cc1[nH]c(-c2ccccc2NC2CCNC2)cc1C(N)=O` (stereo not drawn) [Example 64, 2-methyl-5-[2-(pyrrolidin-3-ylamino)phenyl]-1H-pyrrole-3-carboxamide], the Ki was 1.04 µM. As for `COc1ccc(CN(CC2CCCC2)c2ccccc2-c2cc(C(N)=O)c(C)[nH]2)cc1` [Example 61, 5-{2-[(cyclopentylmethyl)(4-methoxybenzyl)amino]phenyl}-2-methyl-1H-pyrrole-3-carboxamide], the Ki is 8.28 µM. As to `Cc1[nH]c(-c2ccccc2NCc2cccc(NC(=O)OC(C)(C)C)c2)cc1C(N)=O` [Example 51, tert-butyl [3-({[2-(4-carbamoyl-5-methyl-1H-pyrrol-2-yl)phenyl]amino}methyl)phenyl]carbamate], the inhibition constant Ki was 6.7 µM.

Take `Cc1[nH]c(-c2cccc(Oc3ccc4c(c3)OCO4)c2)cc1C(N)=O` [Example 160, 5-[3-(1,3-benzodioxol-5-yloxy)phenyl]-2-methyl-1H-pyrrole-3-carboxamide]: the Ki is 11.5 µM. For `Cc1[nH]c(-c2ccccc2NS(=O)(=O)c2ccc(Cl)cc2)cc1C(N)=O` [Example 81, 5-(2-{[(4-chlorophenyl)sulfonyl]amino}phenyl)-2-methyl-1H-pyrrole-3-carboxamide], the Ki was 9.29 µM.

For the compound `COc1cccc(-c2cccc(-c3cc(C(N)=O)c(C)[nH]3)c2)c1` [Example 151, 5-(3′-methoxybiphenyl-3-yl)-2-methyl-1H-pyrrole-3-carboxamide], the inhibition constant Ki is 10.4 µM. For the compound `Cc1[nH]c(-c2ccccc2NCc2ccc(NC(=O)OC(C)(C)C)cc2)cc1C(N)=O` [Example 50, tert-butyl [4-({[2-(4-carbamoyl-5-methyl-1H-pyrrol-2-yl)phenyl]amino}methyl)phenyl]carbamate], the Ki is 5.04 µM. On the same count and under the same terms, with `Cc1[nH]c(-c2ccccc2-n2ccc(=O)cc2)cc1C(N)=O` [Example 120] the figure was 4.41 µM. For the compound `CC(=O)n1cc(CN(CC2CCCC2)c2ccccc2-c2cc(C(N)=O)c(C)[nH]2)c2ccccc21` [Example 58, 5-(2-{[(1-acetyl-1H-indol-3-yl)methyl](cyclopentylmethyl)amino}phenyl)-2-methyl-1H-pyrrole-3-carboxamide], the Ki is 4.68 µM.
